Data as given in ChEMBL document CHEMBL1914321, “Molecular wipes: application to epidemic keratoconjuctivitis” (J Med Chem, 2011).
Calls of active or inactive are those of the source. The calls are words filed in the database; no cut-off is given here.

Key:
Format in all cases: functional, organism-based
Human adenovirus D37 [1] = test: Inhibition of 35S-labeled Human adenovirus 37 1477 virion binding to human HCE cells at 1:9 compound to PDA ratio formulation prepared by extrusion method after 1 hr by scintillation counting; conditions: Human mastadenovirus D, 1477, HCE
Human adenovirus D37 [2] = test: Induction of 35S-labeled Human adenovirus 37 1477 aggregation by liquid scintillation counting
Human adenovirus D37 [3] = test: Inhibition of 35S-labeled Human adenovirus 37 1477 virion binding to human HCE cells at 0.1:9.9 compound to PDA ratio formulation prepared by probe sonication method after 1 hr by scintillation counting; conditions: Human mastadenovirus D, 1477, HCE
Human adenovirus D37 [4] = test: Antiviral activity against Human adenovirus 37 1477 in human HCE cells assessed as inhibition of viral infection to host cells after 44 hrs by immunofluorescence microscopic analysis; conditions: Human mastadenovirus D, 1477, HCE
Human adenovirus D37 [5] = test: Inhibition of 35S-labeled Human adenovirus 37 1477 virion binding to human HCE cells at 0.5:9.5 compound to PDA ratio formulation prepared by probe sonication method after 1 hr by scintillation counting; conditions: Human mastadenovirus D, 1477, HCE
Human adenovirus D37 [6] = test: Inhibition of 35S-labeled Human adenovirus 37 1477 virion binding to human HCE cells at 2:8 compound to PDA ratio formulation prepared by extrusion method after 1 hr by scintillation counting; conditions: Human mastadenovirus D, 1477, HCE
Human adenovirus D37 [7] = test: Induction of Human adenovirus 37 1477 aggregation by negative staining transmission electron microscopy
Human adenovirus D37 [8] = test: Inhibition of 35S-labeled Human adenovirus 37 1477 virion binding to human HCE cells at 1:9 compound to PDA ratio formulation prepared by probe sonication method after 1 hr by scintillation counting; conditions: Human mastadenovirus D, 1477, HCE

## CCCCCCCCCCCCCCCCCC(=O)NCCOCCOCCOCCOCCOCCC(=O)NCCCCCO[C@]1(C(=O)O)C[C@H](O)[C@@H](NC(C)=O)[C@H]([C@H](O)[C@H](O)CO)O1
Human adenovirus D37 [1]
  IC50: > 50 µM

## CCCCCCCCCCCCCCCCCCCCCCCC(=O)NCCOCCOCCOCCOCCOCCC(=O)NCCCCCO[C@]1(C(=O)O)C[C@H](O)[C@@H](NC(C)=O)[C@H]([C@H](O)[C@H](O)CO)O1
Human adenovirus D37 [1]
  IC50: 21 µM

## CCCCCCCCCCCCC#CC#CCCCCCCCCC(=O)NCCOCCOCCOCCOCCOCCC(=O)NCCCCCO[C@]1(C(=O)O)C[C@H](O)[C@@H](NC(C)=O)[C@H]([C@H](O)[C@H](O)CO)O1
Human adenovirus D37 [2]
  Activity: Active
Human adenovirus D37 [3]
  IC50: > 5 µM
Human adenovirus D37 [4]
  IC50: 0.7 µM
Human adenovirus D37 [5]
  IC50: < 25 µM
Human adenovirus D37 [6]
  IC50: 26 µM
Human adenovirus D37 [7]
  Activity: Active
Human adenovirus D37 [1]
  IC50: 4 µM
Human adenovirus D37 [8]
  IC50: 0.9 µM

## CCCCCCCCCCCCC#CC#CCCCCCCCCC(=O)NCCOCCOCCOCCC(=O)NCCCCCO[C@]1(C(=O)O)C[C@H](O)[C@@H](NC(C)=O)[C@H]([C@H](O)[C@H](O)CO)O1
Human adenovirus D37 [1]
  IC50: > 50 µM

## CCCCCCCCCCCCC#CC#CCCCCCCCCC(=O)NCCOCCOCCOCCOCCOCCOCCOCCOCCOCCOCCOCCOCCC(=O)NCCCCCO[C@]1(C(=O)O)C[C@H](O)[C@@H](NC(C)=O)[C@H]([C@H](O)[C@H](O)CO)O1
Human adenovirus D37 [1]
  IC50: 7 µM
